According to patent publication US12233066B2, “Combinations of inhibitors of influenza virus replication” (COCRYSTAL PHARMA, INC., priority 2018, dated 2025):
Where two headings read alike, the source gives them in different places.

What was measured:
[1] = system: Influenza virus A/PR/8/34 (H1N1); test: Cytopathic effect (CPE) assay of two-drug combinations in MDCK cells, MacSynergy II analysis; assay type: cell-based
[2] = system: influenza B; test: Antiviral activity of the combinations against influenza B; assay type: cell-based; settings: combination with Compound 1
[3] = combination with Compound 1, A/PR/8/34 (H1N1) in MDCK cells, 0.125-8x EC50 checkerboard, MacSynergy II

SMILES | Synergy volume (95%) [1] | Antagonism volume (95%) [1, 3] | Combination effect [1] | Synergistic effect in influenza antiviral CPE assays [1] | Antiviral activity against influenza B [2] | Synergy volume (95%) [1, 3] | Combination effect ([1]; combination with Compound 1, A/PR/8/34 (H1N1) in MDCK cells, MacSynergy II) | Synergistic effect in influenza antiviral CPE assays ([1]; combination with Compound 1, IFV A/PR/8/34 (H1N1))
O=C1c2c(O)c(=O)ccn2N([C@@H]2c3ccccc3SCc3c2ccc(F)c3F)[C@@H]2COCCN12 [Baloxavir, baloxavir] | 285.84 | −12.28 | – | – | – | – | – | –
NC(=O)c1nc(F)c[nH]c1=O [Favipiravir, favipiravir] | 413.85 | −3.15 | Strong synergism | strong synergistic effect | exhibit antiviral activity | – | – | –
CCC(CC)O[C@@H]1C=C(C(=O)O)C[C@H](N)[C@H]1NC(C)=O [Oseltamivir acid, oseltamivir acid] | – | −9.19 | – | – | exhibit antiviral activity | 269.37 | Strong synergism | strong synergistic effect
